Assay results as given in PMC6831561, “Pharmacological and Behavioral Effects of the Synthetic Cannabinoid AKB48 in Rats” (Frontiers in Neuroscience, 2019).

How the values were obtained:
Format in all cases: in vivo
rats [1] = test: Visual object response test
Description: (§1) Visual response was verified by two behavioral tests that evaluated the ability of the rat to capture visual information even when stationary (the visual object response) or when moving (the visual placing response). The visual object response test was used to evaluate the ability of the rat to see an object approaching from the front or the side, inducing the animal to shift or turn its head or to retreat (modified from [Ossato et al., 2015]; [Marti et al., 2019]). For the frontal visual response, a white horizontal bar was moved frontally to the rat’s head; the maneuver was repeated three times. For the lateral visual response, a small dentist’s mirror was moved into the rat’s field of view in a horizontal arc until the stimulus was between the rat’s eyes. The procedure was conducted bilaterally and was repeated three times. The score assigned was a value of 1 if there was a reflection in the rat movement or 0 if not. The total value was calculated by adding the scores obtained in the frontal with that obtained in the lateral visual object response (overall score 9). Evaluation of the visual object response was measured at 0, 10, 30, 60, 120, and 180 min post-injection. The visual placing response test was performed using a tail suspension-modified apparatus able to bring the rat toward the floor at a constant speed of 10 cm/sec (modified from [Ossato et al., 2015]; [Marti et al., 2019]). The downward movement of the rat was videotaped. Frame-by-frame analysis allowed us to evaluate the beginning of the reaction of the rat while it was close to the floor. When the rat started the reaction, an electronic ruler evaluated the perpendicular distance in millimeters between the eyes of the rat to the floor. The naïve rats perceived the floor and prepared for contact at a distance of about 27 ± 4.5 mm. Evaluation of the visual placing response was measured at 0, 15, 35, 65, 125, and 190 min post-injection.

rats [2] = test: Visual placing response test
Description: as §1

rats [3] = test: Acoustic response test
Procedure: Acoustic response measures the reflex of the rat in reply to an acoustic stimulus produced behind the animal. Four acoustic stimuli of different intensities and frequencies were tested (see [Marti et al., 2019]). Each sound test was repeated three times, giving a value of 1 if there was a response and 0 if not present, for a total score of 3 for each sound. The acoustic total score was calculated by adding scores obtained in the four tests (overall score 12). Evaluation of the […] was measured at 0, 10, 30, 60, 120, and 180 min post-injection.

rats [4] = test: Tail pinch test (acute mechanical nociception)
Procedure: Acute mechanical nociception was evaluated using the tail pinch tests (modified by [Vigolo et al., 2015]). A special rigid probe connected to a digital dynamometer (ZP-50N, IMADA, Japan) was gently placed on the tail (in the distal portion), and progressive pressure was applied. When the rat flicked its tail, the pressure was stopped, and the digital instrument saved the maximum peak of weight supported (g/force). A cut-off (500 g/force) was set to avoid tissue damage. The test was repeated three times, and the final value was calculated with the average of three obtained scores. Acute mechanical nociception was measured at 0, 20, 40, 70, 140, and 195 min post-injection.

rats [5] = test: Conditioned place preference paradigm
Description: The CPP chambers consisted of two equally sized compartments interconnected by a guillotine door, adopting a classical conditioning procedure that has been successfully used to assess the rewarding properties of several drugs of abuse. The compartments are differentiated by both visual and tactile cues: the color of the walls in each compartment (white or black) and the texture of the floors (wooden flat or metal wired). The box was placed in a dimly illuminated room. Place conditioning morning sessions ran from 8:30 a.m. to noon, while afternoon sessions ran from 2:30 p.m. to 6 p.m.
According to the conditioned place preference paradigm, on day 0 (pre-test), rats freely explored the two compartments for 15 min, and the time spent in each compartment during the exploratory period was measured. Rats that spent 60–70% of the total time on one side were excluded from the experiment. We used an unbiased-like protocol and assigned the drug-paired compartment randomly. On days 1–3 (conditioning phase), male Sprague-Dawley rats (n = 24) were divided into three groups (n = 8 per group) and given injections of AKB48 (0.1 or 0.5 mg/kg) or vehicle twice daily (9:00 a.m. to 7:00 p.m.) and confined to one compartment for 30 min for 3 days. During these conditioning trials, the animals developed an association between the subjective state produced by the drug and the environmental cues present in the compartment in which they received the drug. On day 4 (test day), rats were allowed to explore the two compartments freely for 15 min, and the time spent in each compartment during the exploratory period was measured.
To evaluate if the aversive effect obtained with the higher dose of AKB48 (0.5 mg/kg) was mediated by activation of CB1 cannabinoid receptors, male Sprague-Dawley rats (n = 32) were divided into four groups (n = 8 per group). Group 1 received AKB48 vehicle in both compartments and served as a control. […] CB1 antagonist was injected 20 min before the agonist AKB48, which was given 10 min prior to the test.

rats [6] = test: Startle and pre-pulse inhibition
Procedure: As previously reported ([Marti et al., 2019]), rats were tested for acoustic startle reactivity in startle chambers (Ugo Basile apparatus, Milan, Italy) consisting of a sound-attenuated, lighted, and ventilated enclosure holding a transparent non-restrictive Perspex® cage (modified version for rats 200 × 90 × 80 mm). A loudspeaker mounted laterally by the holder produced all acoustic stimuli. Peaks and amplitudes of the startle response were detected by a load cell. At the onset of the startling stimulus, 300 ms readings were recorded, and the wave amplitude evoked by the movement of the rat startle response was measured. Acoustic startle test sessions consisted of startle trials (pulse-alone) and pre-pulse trials (pre-pulse + pulse). The pulse-alone trial consisted of a 40 ms 120 dB pulse. Pre-pulse + pulse trial sequences consisted of a 20 ms acoustic pre-pulse, 80 ms delay, and then a 40 ms, 120 dB startle pulse (100 ms onset–onset). There was an average of 15 s (range = from 9 to 21 s) between the trials. Each startle session began with a 10 min acclimation period with a 65 dB broadband white noise that was present continuously throughout the session. The test session contained 40 trials composed by pulse-alone and pre-pulse + pulse trials (with three different pre-pulses of 68, 75, and 85 dB) presented in a pseudorandomized order. Rats were placed in the startle chambers 5 min after treatment with AKB48. The entire startle/PPI test lasted 20 min. The pre-pulse inhibition (PPI) was expressed as the percentage decrease in the amplitude of the startle reactivity caused by the presentation of the pre-pulse. AKB48 (0.1–3 mg/kg i.p.) was administered intraperitoneally, and startle/PPI responses were recorded 15 min (including the 10 min acclimation period) after drug injections.

[7] = AM251 1 mg/kg i.p. before AKB48 3 mg/kg i.p.
[8] = AM251 1 mg/kg i.p. before AKB48 3 mg/kg
[9] = AKB48 0.1–3 mg/kg i.p., 15 min after treatment

Cc1c(C(=O)NN2CCCCC2)nn(-c2ccc(Cl)cc2Cl)c1-c1ccc(I)cc1 [AM251, 1-(2,4-dichlorophenyl)-5-(4-iodophenyl)-4-methyl-N-(piperidin-1-yl)-1H-pyrazole-3-carboxamide, reference compound]
visual object response, AM251 alone (rats [1]; AM251 1 mg/kg i.p. alone): did not alter
inhibition of visual object response induced by AKB48, after AM251 pre-treatment (rats [1]; [7]): prevented
visual placing response, AM251 alone (rats [2]; AM251 1 mg/kg i.p. alone): did not alter
visual impairment (placing) induced by AKB48, after AM251 pre-treatment (rats [2]; [8]): prevented
acoustic response, AM251 alone (rats [3]; AM251 1 mg/kg i.p. alone (data not shown)): did not alter
inhibition of acoustic response induced by AKB48, after AM251 pre-treatment (rats [3]; [7]): prevented
threshold to acute mechanical pain stimuli, AM251 alone (rats [4]; AM251 1 mg/kg i.p. alone): did not alter
AKB48 effect on mechanical pain threshold, after AM251 pre-treatment (rats [4]; [8]): prevented
aversive effect of AKB48 on place preference, with AM251 (rats [5]; AM251 1 mg/kg i.p. + AKB48 0.5 mg/kg): blocked
inhibitory effect of AKB48 on PPI at 68 dB, with AM251 (rats [6]; AM251 1 mg/kg i.p. + AKB48): prevented
inhibitory effect of AKB48 on PPI at 75 dB, with AM251 (rats [6]; AM251 1 mg/kg i.p. + AKB48): prevented
inhibitory effect of AKB48 on startle, with AM251 (rats [6]; AM251 1 mg/kg i.p. + AKB48): prevented
startle response, AM251 alone (rats [6]; AM251 1 mg/kg i.p. alone): did not modify

CCCCCn1nc(C(=O)NC23CC4CC(CC(C4)C2)C3)c2ccccc21 [AKB48, N-(1-adamantyl)-1-pentyl-1H-indazole-3-carboxamide]
persistence of the reduction of visual object response (rats [1]; AKB48 0.3 mg/kg i.p.): transient
visual object response (rats [1]; AKB48 0.1–3.0 mg/kg i.p., 180 min observation): dose-dependently reduced
persistence of the reduction of visual object response (rats [1]; AKB48 0.5 and 3.0 mg/kg i.p.): up to 180 min
persistence of the reduction of visual placing response (rats [2]; AKB48 3 mg/kg i.p.): up to 190 min
visual placing response (rats [2]; AKB48 0.1–3 mg/kg i.p., 190 min observation): reduced
acoustic response (rats [3]; AKB48, only at the highest dose (3 mg/kg i.p.)): reduced
persistence of the reduction of acoustic response (rats [3]; AKB48 highest dose (3 mg/kg i.p.)): up to 120 min
threshold to acute mechanical pain stimulus (tail pinch test) (rats [4]; AKB48 0.1–3 mg/kg i.p.): slightly increased
conditioned place preference (rats [5]; AKB48 0.1 mg/kg): ineffective
conditioned place preference (rats [5]; AKB48 0.5 mg/kg): significant aversive effect
PPI at 68 dB of pre-pulse intensity (rats [6]; [9]): inhibited
PPI at 75 dB of pre-pulse intensity (rats [6]; [9]): inhibited
inhibition at 3 mg/kg (rats [6]; Rattus norvegicus, 0.25 h, AKB48 3 mg/kg, 15 min after administration, read-out: inhibition of startle amplitude): ~50%
